According to paper PMC10359459 (Nucleic Acids Research, 2023):
pKd: −log10 of the molar value.

Biological target: T1, BldD (Saccharopolyspora erythraea, UniProt A4FBF9)
T1 sequence (A4FBF9 1-162): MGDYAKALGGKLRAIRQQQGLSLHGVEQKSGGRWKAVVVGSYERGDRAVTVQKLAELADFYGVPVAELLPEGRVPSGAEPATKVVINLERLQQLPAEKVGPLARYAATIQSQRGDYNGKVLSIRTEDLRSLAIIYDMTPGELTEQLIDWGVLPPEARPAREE
Assay: isothermal titration calorimetry
Format: binding

Compound Nc1nc2c(ncn2[C@@H]2O[C@@H]3CO[P@](=O)(O)O[C@H]4[C@@H](O)[C@H](n5cnc6c(=O)[nH]c(N)nc65)O[C@@H]4CO[P@](=O)(O)O[C@H]3[C@H]2O)c(=O)[nH]1 [c-di-GMP] has a pKd of 6.24.
